Assay results as given in patent US7763656B2, “Use of Acetylamino benzoic acid compounds for nonsense suppression and the treatment of disease” (PTC Therapeutics, Inc., priority 2002, dated 2010).

Experiments:
[1] = tested on: luciferase reporter construct containing a UGA premature termination codon stably transfected in 293T Human Embryonic Kidney cells; assay: cell-based luciferase reporter assay (UGA premature termination codon); conditions: for Activity: ranking combining potency (minimum concentration to produce protein) and efficacy (maximum protein produced), 293T cells, UGA luciferase reporter, gentamicin internal standard
Description: Melting points in Table 1 were obtained on an Electrothermal MeltTemp apparatus and are uncorrected. Activity measurements in Table 1 were performed in a cell-based luciferase reporter assay (as described in Section 4.2) comprising a luciferase reporter construct containing a UGA premature termination codon that was stably transfected in 293T Human Embryonic Kidney cells. Gentamicin, a small molecule known to allow readthrough of premature termination codons, was used as an internal standard. Activity measurements are based on the qualitative relation between the minimum concentration of compound required to produce a given protein in a cell (potency) and the maximum amount of protein produced by the cell (efficacy). Potency and efficacy activities are ranked as either extremely high, very high or significant. The combination of these activities is used to determine the activity ranking.
(§1) Two assays were developed for use in high throughput screens to identify small molecules that promote nonsense suppression. Each assay utilized luciferase because it is a functional reporter gene assay (light is only produced if the protein is functional) and it is extremely sensitive (Light intensity is proportional to luciferase concentration in the nM range). The first assay is a cell-based luciferase reporter assay and the second is a biochemical assay consisting of rabbit reticulocyte lysate and a nonsense-containing luciferase reporter mRNA. In the cell-based assay, a luciferase reporter construct containing a UGA premature termination codon was stably transfected in 293T Human Embryonic Kidney cells. In the biochemical assay, mRNA containing a UGA premature termination codon was used as a reporter in an in vitro translation reaction using rabbit reticulocyte lysate supplemented with tRNA, hemin, creatine kinase, amino acids, KOAc, Mg(OAc)2, and creatine phosphate. […] Synthetic mRNA was prepared in vitro using the T7 promoter and the MegaScript in vitro transcription kit (Ambion).
To determine whether compounds also function in vivo, a stable cell line harboring the UGA nonsense-containing luciferase gene was treated with selected compounds. Cells were grown in standard medium supplemented with 1% penicillin-streptomycin (P/S) and 10% fetal bovine serum (FBS) to 70% confluency and split 1:1 the day before treatment. On the following day, cells were trypsinized and 40,000 cells were added to each well of a 96-well tissue culture dish. Serial dilutions of each compound were prepared to generate a six-point dose response curve spanning 2 logs (30 μM to 0.3 μM). The final concentration of the DMSO solvent remained constant at 1% in each well. Cells treated with 1% DMSO served as the background standard, and cells treated with gentamicin served as a positive control.

28S rRNA = assay: chemical foot-printing of ribosomes prepared from HeLa cells (DMS, kethoxal); assay type: binding; conditions: 100 μM, DMS and kethoxal
Description: Ribosomes prepared from HeLa cells were incubated with the small molecules (at a concentration of 100 μM), followed by treatment with chemical modifying agents (dimethyl sulfate [DMS] and kethoxal [KE]). Following chemical modification, rRNA was phenol-chloroform extracted, ethanol precipitated, analyzed in primer extension reactions using end-labeled oligonucleotides hybridizing to different regions of the three rRNAs and resolved on 6% polyacrylamide gels. The probes used for primer extension cover the entire 18S (7 oligonucleotide primers), 28S (24 oligonucleotide primers), and 5S (one primer) rRNAs. Controls in these experiments include DMSO (a control for changes in rRNA accessibility induced by DMSO), paromomycin (a marker for 18S rRNA binding), and anisomycin (a marker for 28S rRNA binding).

[2] = tested on: CFTR in a bronchial epithelial cell line harboring a nonsense codon at amino acid 1282 (W1282X); assay: CFTR function as cAMP-activated chloride channel, SPQ assay; assay type: cell-based; conditions: compound, cAMP stimulation
Description: To address the effects of the nonsense-suppressing compounds on mRNAs altered in specific inherited diseases, a bronchial epithelial cell line harboring a nonsense codon at amino acid 1282 (W1282X) was treated with 3-[2-(4-Isopropyl-3-methyl-phenoxy)-acetylamino]-benzoic acid, sodium salt (20RM) and CFTR function was monitored as a cAMP-activated chloride channel using the SPQ assay (Yang et al., 1993, Hum Mol Genet. 2(8):1253-1261 and Howard et al., 1996, Nat Med. 2(4):467-469). […] No increase in fluorescence was observed when cells were not treated with compound or if the cells were not stimulated with cAMP.

[3] = tested on: dystrophin in mouse primary skeletal muscle cultures derived from mdx mice; assay: dystrophin immunostaining in primary skeletal muscle cultures from mdx mice; assay type: cell-based; conditions: 20 μM, cells cultured for 10 days
Description: Mouse primary skeletal muscle cultures derived from 1-day old mdx mice were prepared as described previously (Barton-Davis et al., 1999, J Clin Invest. 104(4):375-381). Cells were cultured for 10 days in the presence of 3-[2-(4-Isopropyl-3-methyl-phenoxy)-acetylamino]-benzoic acid, sodium salt (20 μM). Culture medium was replaced every four days and the presence of dystrophin in myoblast cultures was detected by immunostaining as described previously (Barton-Davis et al., 1999, J Clin Invest. 104(4):375-381). A primary monoclonal antibody to the C-terminus of the dystrophin protein (F19A12) was used undiluted and rhodamine conjugated anti-mouse IgG was used as the secondary antibody. The F19A12 antibody will detect the full-length protein produced by suppression of the nonsense codon. Staining was viewed using a Leica DMR micropscope, digital camera, and associated imaging software at the University of Pennsylvania.

[4] = tested on: tripeptidyl-peptidase 1 (TPP-I) in patient-derived LINCL cell line; conditions: patient-derived cell line compound heterozygous for Arg208Stop and another nonsense mutation; maximal; cited from earlier work
[5] = tested on: nonsense-containing luciferase reporter mRNA (UGA premature termination codon) in rabbit reticulocyte lysate; assay: biochemical luciferase nonsense suppression assay (in vitro translation); conditions: internal standard
Source text: as §1

[6] = tested on: dystrophin premature stop codon in mdx mice; conditions: cited from earlier work

| Compound | Activity [1] | melting point [°C] | other results |
| --- | --- | --- | --- |
| COc1ccc(OC2CCN(c3cccc(C(=O)O)c3)C2=O)cc1 (stereo not drawn) [Compound 82, 3-[3-(4-Methoxy-phenoxy)-2-oxo-pyrrolidin-1-yl]-benzoic acid] | 0 | 198 to 201 |  |
| O=C(O)c1cccc(N2CCC(Oc3ccc([N+](=O)[O-])cc3)C2=O)c1 (stereo not drawn) [Compound 81, 3-[3-(4-Nitro-phenoxy)-2-oxo-pyrrolidin-1-yl]-benzoic acid] | 0 | 178 to 180 |  |
| CC(C)(C)c1ccc(OC2CCN(c3cccc(C(=O)O)c3)C2=O)cc1 (stereo not drawn) [Compound 88, 3-[3-(4-tert-Butyl-phenoxy)-2-oxo-pyrrolidin-1-yl]-benzoic acid] | 0 | 238 to 241 |  |
| O=C(COc1ccc(Cc2nnc(-c3ccccc3)o2)cc1)Nc1cccc(C(=O)O)c1 [Compound 80, 3-{2-[4-(5-Phenyl-[1,3,4]oxadiazol-2-ylmethyl)-phenoxy]-acetylamino}-benzoic acid] | 0 | 207 to 210 |  |
| O=C(COc1ccc([N+](=O)[O-])cn1)Nc1cccc(C(=O)O)c1 [Compound 71, 3-[2-(5-Nitro-pyridin-2-yloxy)-acetylamino]-benzoic acid] | 0 | 233 to 236 |  |
| Cc1cc(OCC(=O)Nc2cccc(C(=O)[O-])c2)ccc1C(C)C.[Na+] [Compound 46, 3-[2-(4-Isopropyl-3-methyl-phenoxy)-acetylamino]-benzoic acid, Sodium salt] |  | 188 to 189 | accessibility of chemical modifying agents to rRNA nucleotides (foot-printing) (28S rRNA): alters the accessibility of the chemical modifying agents to specific nucleotides in the 28S rRNA; CFTR function (SPQ fluorescence, chloride channel activity) [2]: increase chloride channel activity; full-length dystrophin expression (immunostaining) [3]: EXPRESS FULL-LENGTH […] |
| O=C(COc1ccc(COCCCCN2C(=O)c3ccccc3C2=O)cc1)Nc1cccc(C(=O)O)c1 [Compound 73, 3-(2-{4-[4-(1,3-Dioxo-1,3-dihydro-isoindol-2-yl)-butoxymethyl]-phenoxy}-acetylamino)-benzoic acid] | 0 | 95 to 100 |  |
| gentamicin |  |  | luciferase activity ([1]; cell-based assay, internal standard): increased luciferase activity; TPP-I restored [4]: approximately 7 % of normal levels of TPP-I; luciferase activity [5]: increased luciferase activity |
| N#CCc1ccc(OCC(=O)Nc2cccc(C(=O)O)c2)cc1 [Compound 77, 3-[2-(4-Cyanomethyl-phenoxy)-acetylamino]-benzoic acid] | 0 | 245 to 247 |  |
| O=C(O)c1cccc(N2CCC(Oc3ccc4c(c3)CCC4)C2=O)c1 (stereo not drawn) [Compound 35, 3-[3-(Indan-5-yloxy)-2-oxo-pyrrolidin-1-yl]-benzoic acid] |  | 182 to 184 |  |
| gentamicin sulfate |  |  | suppression of translational termination at premature stop codon (dystrophin) [6]: full length dystrophin |
| Cc1ccc(OC2CCN(c3cccc(C(=O)O)c3)C2=O)cc1C (stereo not drawn) [Compound 89, 3-[3-(3,4-Dimethyl-phenoxy)-2-oxo-pyrrolidin-1-yl]-benzoic acid] |  | 201 to 205 |  |
| O=C(O)c1cccc(N2CCC(Oc3ccc(Br)cc3)C2=O)c1 (stereo not drawn) [Compound 76, 3-[3-(4-Bromo-phenoxy)-2-oxo-pyrrolidin-1-yl]-benzoic acid] |  | 196 to 197 |  |
| Cc1cc(C)nc(SCc2ccc(OCC(=O)Nc3cccc(C(=O)O)c3)cc2)n1 [Compound 74, 3-{2-[4-(4,6-Dimethyl-pyrimidin-2-ylsulfanylmethyl)-phenoxy]-acetylamino}-benzoic acid] | 0 | 194 to 196 |  |
| O=C(COc1ccc(Cl)c(Cl)c1)Nc1cccc(C(=O)O)c1 [Compound 12, 3-[2-(3,4-dichlorophenoxy)-acetylamino]-benzoic acid] |  | 219 to 221 |  |
| Cc1cc(OCC(=O)Nc2ccc(O)c(C(=O)O)c2)ccc1C(C)C [Compound 56, 2-Hydroxy-5-[2-(4-isopropyl-3-methyl-phenoxy)-acetylamino] benzoic acid] |  | 101 to 103 |  |
| CC(C)c1cccc(OCC(=O)Nc2cccc(C(=O)O)c2)c1 [Compound 6, 3-[2-(3-isopropyl-phenoxy)-acetylamino]-benzoic acid] |  | 166 to 167 |  |
